Molecules are shown by their SMILES. pIC50: −log10 of the molar value. Structures can show the parent of a compound that is named as a salt. Where two headings read alike, the source gives them in different places. Bounds are passed on as bounds.

The target of one assay is CDC7 (Homo sapiens, UniProt O00311). Briefly: CDC7 inhibition, biochemical chemiluminescence assay (Kinase Glo, IC50 determination). In short, it runs like this:
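CDC7 enzyme preincubated with compound 10 min at ambient temperature, then ATP mix in Tris Base added; reaction 90 min at 24-27 °C. Remaining ATP quantified by Kinase Glo luminescence to give IC50.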
In general terms: Kinase-Glo measures the ATP left after a reaction by luminescence.

In the next assay the target is CK2 (Homo sapiens, UniProt P68400). Briefly: CK2 inhibition, biochemical chemiluminescence holoenzyme assay (Kinase Glo, IC50 determination). As to conditions: Table 1 activity class; symbol given only if active; read-out: CK2 IC50 (Activity C). In short, it runs like this: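 Holoenzyme CK2 assay; compounds pre-incubated with substrate and enzyme, then reacted 150 min at 24-27° C. Remaining ATP measured as luminescence with Kinase Glo, and IC50 derived from the signal.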
CK2, sequence (P68400 whole entry): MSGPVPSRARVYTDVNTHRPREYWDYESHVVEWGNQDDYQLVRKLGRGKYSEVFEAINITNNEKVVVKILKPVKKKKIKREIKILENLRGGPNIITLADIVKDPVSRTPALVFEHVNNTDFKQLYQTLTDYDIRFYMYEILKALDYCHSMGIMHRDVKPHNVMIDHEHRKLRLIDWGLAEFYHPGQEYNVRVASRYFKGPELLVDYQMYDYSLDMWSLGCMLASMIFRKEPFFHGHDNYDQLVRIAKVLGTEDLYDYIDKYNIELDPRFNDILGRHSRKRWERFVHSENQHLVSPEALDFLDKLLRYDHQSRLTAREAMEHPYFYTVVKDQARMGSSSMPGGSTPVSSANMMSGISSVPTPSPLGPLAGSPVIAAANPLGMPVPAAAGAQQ
CK2, sequence (P67870 whole entry partner): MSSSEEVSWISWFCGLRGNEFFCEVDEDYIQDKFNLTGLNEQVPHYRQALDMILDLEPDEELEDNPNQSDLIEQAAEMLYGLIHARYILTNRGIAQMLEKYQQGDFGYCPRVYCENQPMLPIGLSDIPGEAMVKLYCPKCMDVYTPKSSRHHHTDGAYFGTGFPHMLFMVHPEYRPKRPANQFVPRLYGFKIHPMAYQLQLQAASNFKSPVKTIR

Assay [1] concerns the target PIM (PIM-1, PIM-2, and/or PIM-3). In words: PIM-1, PIM-2 and PIM-3 inhibition, biochemical chemiluminescence assays (Kinase Glo, IC50 determination). To be noted: Table 1 activity class; PIM refers to PIM-1, PIM-2, and/or PIM-3; read-out: PIM IC50 (Activity B).
Setting [2] is: Table 1 activity class, symbol given only if active, read-out: CDC7 IC50 (Activity A).
Where [3] appears, read: compounds in Table 1, read-out: CDC7 IC50 value.

CDC7, sequence (O00311 whole entry): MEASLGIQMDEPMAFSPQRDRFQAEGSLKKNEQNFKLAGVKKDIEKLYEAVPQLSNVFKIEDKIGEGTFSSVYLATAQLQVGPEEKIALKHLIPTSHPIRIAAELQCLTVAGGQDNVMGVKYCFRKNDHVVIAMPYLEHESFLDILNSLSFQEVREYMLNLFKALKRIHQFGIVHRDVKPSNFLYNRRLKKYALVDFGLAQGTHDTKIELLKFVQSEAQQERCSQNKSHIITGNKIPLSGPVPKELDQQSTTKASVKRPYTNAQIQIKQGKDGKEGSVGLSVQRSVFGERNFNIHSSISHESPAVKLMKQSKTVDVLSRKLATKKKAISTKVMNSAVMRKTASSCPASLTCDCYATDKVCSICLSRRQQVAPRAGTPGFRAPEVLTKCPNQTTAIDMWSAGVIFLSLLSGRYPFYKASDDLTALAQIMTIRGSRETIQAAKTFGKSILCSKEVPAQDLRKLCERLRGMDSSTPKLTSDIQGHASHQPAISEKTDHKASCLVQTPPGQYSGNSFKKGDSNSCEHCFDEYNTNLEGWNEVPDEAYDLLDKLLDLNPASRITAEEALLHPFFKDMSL
CDC7, sequence (Q9UBU7 whole entry partner): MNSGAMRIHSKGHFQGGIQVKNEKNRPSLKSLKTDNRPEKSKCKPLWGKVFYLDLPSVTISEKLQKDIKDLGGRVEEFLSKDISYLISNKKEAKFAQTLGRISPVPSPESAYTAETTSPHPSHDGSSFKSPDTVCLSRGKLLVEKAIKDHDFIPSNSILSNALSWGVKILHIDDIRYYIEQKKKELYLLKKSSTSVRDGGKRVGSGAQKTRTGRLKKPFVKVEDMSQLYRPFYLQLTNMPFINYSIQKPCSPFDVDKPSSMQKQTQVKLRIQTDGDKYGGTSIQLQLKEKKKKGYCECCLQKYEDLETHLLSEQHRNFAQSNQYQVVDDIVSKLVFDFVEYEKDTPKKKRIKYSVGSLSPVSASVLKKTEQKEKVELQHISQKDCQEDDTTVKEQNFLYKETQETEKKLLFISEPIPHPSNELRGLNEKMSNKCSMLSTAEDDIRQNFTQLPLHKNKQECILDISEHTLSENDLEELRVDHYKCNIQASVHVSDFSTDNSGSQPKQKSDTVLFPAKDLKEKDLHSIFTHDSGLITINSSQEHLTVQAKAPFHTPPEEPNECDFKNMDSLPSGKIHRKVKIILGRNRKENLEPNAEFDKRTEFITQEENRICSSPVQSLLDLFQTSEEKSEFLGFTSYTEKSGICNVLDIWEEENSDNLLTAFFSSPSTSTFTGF

A word on the pIC50: it is the negative decadic logarithm of the IC50, by convention in mol/L. Take `COc1ccc2oc3c(=O)[nH]c([C@@H]4C[C@@H](F)CN4)nc3c2c1` [Compound 532, 2-[(2S,4R)-4-fluoropyrrolidin-2-yl]-8-(methyloxy)[1]benzofuro[3,2-d]pyrimidin-4(3H)-one]: the pIC50 at CDC7 (setting [2]) is above 5.00; on CDC7 (setting [3]), above 7.00; on CK2, above 5.00; in assay [1], above 5.00.
In the case of `C[C@H](N)c1nc2c(oc3ccc(Cl)cc32)c(=O)[nH]1` [Compound 533, 2-[(1S)-1-aminoethyl]-8-chloro[1]benzofuro[3,2-d]pyrimidin-4(3H)-one], the pIC50 on CDC7 (setting [2]) was above 5.00; on CDC7 (setting [3]) it was above 7.00; at CK2, above 5.00; in assay [1] it was above 5.00.
With `O=c1[nH]c(C2CCCCN2)nc2c1oc1ccc(Br)cc12` (stereo not drawn) [Compound 534, 8-Bromo-2-piperidin-2-yl[1]benzofuro[3,2-d]pyrimidin-4(3H)-one hydrochloride], the pIC50 is above 5.00 at CDC7 (setting [2]), above 7.00 on CDC7 (setting [3]), above 5.00 at CK2 and above 5.00 in assay [1].
As for `NC(Cc1cccs1)c1nc2c(oc3ccc(Br)cc32)c(=O)[nH]1` (stereo not drawn) [Compound 538, 2-[1-amino-2-(2-thienyl)ethyl]-8-bromo[1]benzofuro[3,2-d]pyrimidin-4(3H)-one], the pIC50 (on CDC7 (setting [2]); on CK2; in assay [1]) was above 5.00 each time.
As to `CC(C)[C@H](N)c1nc2c(oc3ccc(Br)cc32)c(=O)[nH]1` [Compound 540, 2-[(1S)-1-amino-2-methylpropyl]-8-bromo[1]benzofuro[3,2-d]pyrimidin-4(3H)-one], the pIC50 on CDC7 (setting [2]) is above 5.00; at CDC7 (setting [3]) it was above 7.00; at CK2, above 5.00; in assay [1] it was above 5.00.
Regarding `NC1(c2nc3c(oc4ccc(Br)cc43)c(=O)[nH]2)CCCC1` [Compound 543, 2-(1-aminocyclopentyl)-8-bromo[1]benzofuro[3,2-d]pyrimidin-4(3H)-one], the pIC50 was above 5.00 at CDC7 (setting [2]), above 7.00 at CDC7 (setting [3]), above 5.00 at CK2 and above 5.00 in assay [1].
Take `NC1(c2nc3c(oc4ccc(Br)cc43)c(=O)[nH]2)CCC1` [Compound 544, 2-(1-aminocyclobutyl)-8-bromo[1]benzofuro[3,2-d]pyrimidin-4(3H)-one]: the pIC50 at CDC7 (setting [2]) was above 5.00; at CDC7 (setting [3]), above 7.00; at CK2, above 5.00; in assay [1] it was above 5.00.

These data come from patent publication US20090247559A1 (Exelixis, Inc., priority 2007, published 2009).
